The text below walks through data of PubChem BioAssay (NCI).

“And” between values parts separate entries of the source, which are not always exact repeats. Identical values can stand only once.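 Where inhibition never reached the appropriate level, the endpoint shown equals the highest concentration tested. Otherwise, values were interpolated linearly from a five-concentration, 48-hour dose response in 96-well plates. The concentration for 50% growth inhibition is given as GI50. TGI: concentration producing complete growth inhibition.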 *1 amine or outer side, *2 acyl side, *3 side chain or, on linkers, in order; H or OH if unused. Where a SMILES comes first, the peptide text is derived from it. [ ]: non-standard residue; d: D form. The star is where a group is joined. X11 = C/C=C/CC(C)C(O)[C@H](N[*:1])C(=O)[*:2]; Decanoyl = CCCCCCCCCC(=O)*; Leu(ol) = CC(C)C[C@H](N)CO; Iva = CC[C@](C)(N)C(=O)O; Aib = CC(C)(N)C(=O)O Some results are limits rather than exact numbers.

The test deals with MDA-MB-468 breast. The test is described as follows: NCI anticancer screen, dose series, 48 h.
Take `O=C(NC(=O)c1c(Cl)nc2sccn12)Nc1ccc(Cl)cc1`: the GI50 was 3950 nM and the TGI worked out at 35700 nM. For `COc1ccc(C(=O)/C=C/c2cc(-c3cc(OC)c(OC)c(OC)c3)n[nH]2)cc1`, in that order: 1290 nM and 2650 nM. The matching figures for `COc1ccccc1S(=O)(=O)Nc1ccc2c3c(cc(CCC(=O)NCCCCNc4cccc5c4C(=O)N(C4CCC(=O)NC4=O)C5=O)cc13)C(=O)N2C` (centres undefined): 21.7 nM and 87.2 nM. For `O=C(/C=C/C=C/c1ccccc1)c1ccco1`, the GI50 is 5000 nM and the TGI amounted to 25100 nM. Regarding `COc1ccc(C(=O)c2cc(C)c(OC)c(C)c2)c(OC)c1NC(C)=O`, the GI50 was 159 nM. Regarding `CNCCN(C)c1ccc(Nc2cc(NC3CC3)n3ncc(C#N)c3n2)cc1NC(C)=O`, the GI50 was less than 10.6 nM and the TGI stood at 62.6 nM. As to `CCCCCCSSC(=S)N(CC)CC`, the GI50 was 29900 nM and the TGI was greater than 100000 nM.

Take `c1ccc(OCCC[P+](c2ccccc2)(c2ccccc2)c2ccccc2)cc1`: the GI50 was 230 nM and the TGI came out at 1490 nM. For `C[C@@H]1CCC/C=C/[C@H]2C[C@@H](O)C[C@@H]2[C@@H](O)/C=C/C(=O)O1`, the GI50 is 64.8 nM and the TGI amounted to 5030 nM.

With `CS(=O)(=O)Nc1cccc(-c2ccc3ncnc(Nc4ccc(F)c(Cl)c4)c3c2)c1`, the GI50 is 108 nM and the TGI worked out at 860 nM. For `O=C(NCC(F)(F)F)Nc1cccc(-c2cnc3cc(-c4ccc(F)cc4)ccn23)c1`, the GI50 is 339 nM and the TGI was 1930 nM.

As to `CN(C)CCCn1c(=O)c2ccccc2c2cnc3[nH]ccc3c21`, the GI50 is 493 nM and the TGI is 2530 nM. For `CS(=O)(=O)c1ccc(Nc2nc(N[C@H]3CCCC[C@H]3N)nc3cc[nH]c(=O)c23)cc1`, in that order: 338 nM and 1460 nM.

With `Clc1ccc(-c2c3ccc(=[N+]4CCCCC4)cc-3oc3cc(N4CCCCC4)ccc23)cc1`, the GI50 is 104 nM and the TGI turned out to be 261 nM. Take `CSc1nc2nc3c(nc2c(=O)n1C)C(=O)c1ccccc1C3=O`: the GI50 is 140 nM and the TGI worked out at 352 nM.

With `O=C(NCCCc1cn[nH]c1)c1ccc(-c2ccncc2)c(C#Cc2ccc(F)cc2)c1`, the GI50 was 2140 nM and the TGI was 12800 nM. Take `COc1ccc(-c2nc(-c3nc4ccc(C)cc4[nH]3)cc3c2[nH]c2ccccc23)cc1`: the GI50 was 2690 nM and the TGI was 25000 nM. For the molecule `O=C1/C(=C/c2ccc(F)cc2)CN(C(=O)CCN2CCC(=NO)CC2)C/C1=C\c1ccc(F)cc1`, the GI50 is 1730 nM and the TGI stood at 4720 nM.

As to `Cc1ccc(-c2nc(/C=N/Nc3cc(C)nc4ccc(Cl)cc34)c(C)o2)cc1`, the GI50 is 1730 nM and the TGI was 3260 nM. With `CCN(CC)CCCC(C)Nc1cc(-c2cccc(OC(F)(F)F)c2)nc2ccc(N3CCCC3)cc12` (centres undefined), the GI50 was 43.5 nM and the TGI turned out to be 44000 nM.

For the molecule `Cn1cc(C2=C(c3c[nH]c4ccccc34)C(=O)NC2=O)c2ccccc21`, the GI50 was 470 nM and the TGI was greater than 25000 nM. For `COc1cccc2cc(N(C)c3nc(C)nc4c3CCC4)ccc12`, the GI50 was less than 10 nM and the TGI came out at 20500 nM. The matching figures for `CN=C1C=CC(=C(c2ccc(N(C)C)cc2)c2ccc(N(C)C)cc2)C=C1`: 178 nM and 539 nM. Consider `N#CC1=C(N)Oc2c(ccc3ccccc23)C1c1cc(=O)oc2ccc(Cl)cc12` (centres undefined), for which the GI50 is 520 nM and the TGI was 33000 nM.

With `COc1cc(C2C3=C(COC3=O)N(CCO)c3cc4c(cc32)OCCO4)cc(OC)c1OC` (centres undefined), the GI50 is 106 nM and the TGI was found to be 319 nM. `NC(=O)c1ccc(Oc2nccc(-c3c(-c4ccc(F)cc4)ncn3C3CCNCC3)n2)cc1`: the GI50 was 7400 nM and the TGI was greater than 25000 nM. For `C/C=C/CC(C)C(O)[C@H](NC(=O)[C@@H]1CCCN1C(=O)[C@](C)(CC)NC(=O)CCCCCCCCC)C(=O)N[C@@](C)(CC)C(=O)N[C@@H](CCC(N)=O)C(=O)N[C@H](CCC(N)=O)C(=O)NC(C)(C)C(=O)NC(C)(C)C(=O)N[C@@H](CCC(N)=O)C(=O)N[C@H](CC(C)C)C(=O)N[C@H](CO)CC(C)C` (stereo partly drawn) (Decanoyl-[Iva]P[X11][Iva]Q[dQ][Aib][Aib]Q[dL][Leu(ol)]), in that order: 1780 nM and 3380 nM. As to `O=C1CSC(c2ccccc2Cl)N1c1nnc(Cn2cnnc2)o1` (centres undefined), the GI50 is 3850 nM and the TGI stood at 17200 nM. For `C#Cc1cccc(Nc2nc(Cl)nc3cc(NC(=O)CCl)ccc23)c1`, in that order: 500 nM and 1170 nM.

Turning to `COC(=O)N1CCN(CCNCc2ccc(NC(=O)c3ccc(C)c(C#Cc4cnc5cccnn45)c3)cc2C(F)(F)F)CC1`, the GI50 is 1580 nM and the TGI came to 3200 nM. The matching figures for `Cc1cc(C)c(C#N)c(Sc2nc(C)c([N+](=O)[O-])c(C)c2C#N)n1`: 1650 nM and 3770 nM. The matching figures for `CC(C)N(Cc1ccc(CN(C(=O)CCl)C(C)C)cc1)C(=O)CCl`: 1740 nM and 3940 nM. With `COc1cc(OC)cc(C2C3=C(COC3=O)Nc3cc(OC)ccc32)c1` (centres undefined), the GI50 was less than 10 nM and the TGI is less than 12.2 nM. For `Cc1c(C#N)cccc1[C@@H](C)Nc1nnc(C)c2cnc(N3CCOCC3)cc12`, in that order: 7630 nM and 38100 nM. `CNCCCNc1nc2ccccc2c2c(=O)c3cc(OC)ccc3sc12`: the GI50 was 1760 nM and the TGI was found to be 3470 nM. The matching figures for `NS(=O)(=O)c1ccc(Nc2nc(N/N=C/c3ccc(C(F)(F)F)cc3)nc(Nc3ccccc3)n2)cc1`: 1730 nM and 3870 nM. For the molecule `C#C[C@@]1(O)[C@@H](CO)O[C@@H](n2cc(I)c3c(N)ncnc32)[C@@H]1O`, the GI50 is 153 nM and the TGI stood at 561 nM.

With `CC(=O)N1CCN(CCNC(=O)n2cc(-c3ccncc3)c(-c3cc(O)cc(Cl)c3)n2)CC1`, the GI50 is 4590 nM and the TGI amounted to 20800 nM.

Regarding `COc1ccc(-c2cc3c(C)nc(N)nc3n(C3CCC(OCCO)CC3)c2=O)cn1` (centres undefined), the GI50 was 41.7 nM and 32.3 nM; the TGI was 270 nM and 256 nM.

With `CC/C(Cc1ccccc1)=C(\c1ccc(OCCN2CCCC2)cc1)c1ccc(OC(=O)NCc2ccccc2)cc1`, the GI50 is 1990 nM and the TGI came out at 3930 nM.
